Laboratory results reported in ChEMBL document CHEMBL1201862, “PubChem BioAssay data set” (2004).
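Growth conditions: 96-well plates. Treatment: test compound, 48 hours, 5 concentrations. Analysis: linear interpolation between bracketing concentrations; unreached endpoints set to highest concentration. GI50 is the concentration that inhibits growth by half.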 The source made the active and inactive calls. Rule as the data show it: active = GI50 up to about 1.1 µM and inactive = higher. Residues, ends and D or L forms follow the SMILES beside them. *: point of attachment. Fmoc = O=C(OCC1c2ccccc2-c2ccccc21)*; Boc = CC(C)(C)OC(=O)*

How the values were obtained:
Assay in all cases: DTP human tumour cell line panel, 48 h
OVCAR-5 = test system: OVCAR-5
NCI-H522 = test system: NCI-H522
MDA-N = test system: MDA-N
OVCAR-3 = test system: OVCAR-3
HCT-116 = test system: HCT-116
U-251 = test system: U-251
UACC-257 = test system: UACC-257
NCI/ADR-RES = test system: NCI/ADR-RES
SF-295 = test system: SF-295
ACHN = test system: ACHN
RPMI-8226 = test system: RPMI-8226
SNB-19 = test system: SNB-19
SK-MEL-5 = test system: SK-MEL-5
Malme-3M = test system: Malme-3M
UO-31 = test system: UO-31
786-0 = test system: 786-0
OVCAR-8 = test system: OVCAR-8
COLO 205 = test system: COLO 205
SN12C = test system: SN12C
RXF 393 = test system: RXF 393
Hs-578T = test system: Hs-578T
SK-OV-3 = test system: SK-OV-3
SR = test system: SR
CAKI-1 = test system: CAKI-1
MDA-MB-435 = test system: MDA-MB-435
T47D = test system: T47D
EKVX = test system: EKVX
NCI-H23 = test system: NCI-H23
DU-145 = test system: DU-145
HL-60 = test system: HL-60
KM12 = test system: KM12
IGROV-1 = test system: IGROV-1
SF-539 = test system: SF-539
SW-620 = test system: SW-620
M14 = test system: M14
NCI-H226 = test system: NCI-H226
K562 = test system: K562
SK-MEL-2 = test system: SK-MEL-2
A549 = test system: A549
CCRF-CEM = test system: CCRF-CEM
TK-10 = test system: TK-10
NCI-H460 = test system: NCI-H460
HT-29 = test system: HT-29
HCT-15 = test system: HCT-15
HCC 2998 = test system: HCC 2998
MCF7 = test system: MCF7
MDA-MB-231 = test system: MDA-MB-231
LOX IMVI = test system: LOX IMVI
PC-3 = test system: PC-3
HOP-62 = test system: HOP-62
BT-549 = test system: BT-549
UACC-62 = test system: UACC-62
SK-MEL-28 = test system: SK-MEL-28
SNB-75 = test system: SNB-75
SF-268 = test system: SF-268
OVCAR-4 = test system: OVCAR-4
MOLT-4 = test system: MOLT-4
HOP-92 = test system: HOP-92
A498 = test system: A498

Measured: GI50

CC(C)(C)OC(=O)NCCCCC(NC(=O)C(Cc1c[nH]c2ccccc12)NC(=O)OCC1c2ccccc2-c2ccccc21)C(=O)N1CCCC1C(=O)NCC(N)=O (stereo not drawn) (Fmoc-WK(Boc)PG-NH2; configuration not given here)
inactive: OVCAR-5 > 100 µM | NCI-H522 > 100 µM | MDA-N > 100 µM | OVCAR-3 > 100 µM | HCT-116 > 100 µM | U-251 > 100 µM | UACC-257 > 100 µM | NCI/ADR-RES > 100 µM | SF-295 60.3 µM | ACHN > 100 µM | RPMI-8226 > 100 µM | SNB-19 > 100 µM | SK-MEL-5 > 100 µM | Malme-3M > 100 µM | UO-31 > 100 µM | 786-0 > 100 µM | OVCAR-8 > 100 µM | COLO 205 > 100 µM | SN12C > 100 µM | RXF 393 > 100 µM | Hs-578T > 100 µM | SK-OV-3 1.59 µM | SR > 100 µM | CAKI-1 > 100 µM | MDA-MB-435 > 100 µM | T47D > 100 µM | EKVX > 100 µM | NCI-H23 > 100 µM | DU-145 > 100 µM | HL-60 > 100 µM | KM12 > 100 µM | IGROV-1 > 100 µM | SF-539 > 100 µM | SW-620 > 100 µM | M14 60.5 µM | NCI-H226 > 100 µM | K562 > 100 µM | SK-MEL-2 > 100 µM | A549 > 100 µM | CCRF-CEM > 100 µM | TK-10 > 100 µM | NCI-H460 > 100 µM | HT-29 > 100 µM | HCC 2998 > 100 µM | MCF7 > 100 µM | MDA-MB-231 42.5 µM | LOX IMVI > 100 µM | PC-3 > 100 µM | HOP-62 > 100 µM | BT-549 > 100 µM | UACC-62 > 100 µM | SK-MEL-28 > 100 µM | SNB-75 > 100 µM | SF-268 > 100 µM | OVCAR-4 > 100 µM | MOLT-4 > 100 µM | HOP-92 > 100 µM
> 100 µM: HCT-15

CN1c2ccccc2S(=O)(=O)n2c(COc3ccccc3)nnc21
> 100 µM: HCT-15
inactive: OVCAR-5 > 100 µM | NCI-H522 56.8 µM | MDA-N > 100 µM | OVCAR-3 > 100 µM | HCT-116 > 100 µM | U-251 > 100 µM | UACC-257 > 100 µM | NCI/ADR-RES > 100 µM | SF-295 45.7 µM | ACHN > 100 µM | SNB-19 > 100 µM | SK-MEL-5 > 100 µM | UO-31 > 100 µM | 786-0 64.6 µM | OVCAR-8 > 100 µM | COLO 205 > 100 µM | SN12C > 100 µM | RXF 393 > 100 µM | Hs-578T > 100 µM | SK-OV-3 > 100 µM | CAKI-1 > 100 µM | MDA-MB-435 > 100 µM | T47D > 100 µM | EKVX > 100 µM | NCI-H23 > 100 µM | DU-145 > 100 µM | HL-60 62.5 µM | KM12 > 100 µM | IGROV-1 > 100 µM | SF-539 62.8 µM | SW-620 > 100 µM | M14 > 100 µM | NCI-H226 > 100 µM | K562 > 100 µM | SK-MEL-2 > 100 µM | A549 > 100 µM | CCRF-CEM > 100 µM | TK-10 > 100 µM | NCI-H460 > 100 µM | HT-29 > 100 µM | HCC 2998 > 100 µM | MCF7 > 100 µM | MDA-MB-231 > 100 µM | LOX IMVI > 100 µM | PC-3 > 100 µM | A498 57.8 µM | HOP-62 35.4 µM | BT-549 64.4 µM | UACC-62 > 100 µM | SK-MEL-28 > 100 µM | SF-268 > 100 µM | OVCAR-4 > 100 µM | MOLT-4 > 100 µM | HOP-92 56.5 µM
